The record followed here is patent publication US8494269B2, “Method and system for screening of a to-be-analyzed candidate as a skin-whitening agent” (National Sun Yat-Sen University, priority 2009, dated 2013).

The subject of assay [1] is zebrafish larvae. The experiment in a line: Zebrafish larvae skin-whitening screen, number of valid pixels by Image Scion. It counts as in vivo, zebrafish (Danio Rerio). To be noted: for mean of the number of "valid pixels" versus concentration of the administered candidate: FIGS. 11, 12 and 13, 48 h exposure, Image Scion; for concentration giving statistically significant reduction of "valid pixels" in the images of the zebrafish vs control group: embryos exposed 48 h in Hank's buffer/DMSO, p<0.05, ANOVA followed by Duncan's method, Image Scion index 150-254; for conclusion of the screening as skin-whitening agent: second feature parameter smaller than the first with p<0.05. The protocol:
The preparation of the zebrafish embryos was similar to, but with small modifications from, that disclosed in M. Westerfield (2007), The Zebrafish Book: A Guide for the Laboratory Use of Zebrafish (Danio Rerio), 5th edit. University of Oregon Press, Eugene, Oreg. First, one female fish and two male fish were put in a breeding tank having an acrylic grid under a water temperature of 28.5 degrees Celsius. Then, the breeding tank was made to undergo a first light-dark cycle of 14 hours of light and 10 hours of darkness. Subsequently, during the second light-dark cycle, the female fish and the male fish would respectively produce eggs and sperms for fertilization so as to obtain fertilized eggs. These fertilized eggs are referred to as fertilized eggs from “the same parental generation”. Next, after an hour, the fertilized eggs were removed from the breeding tank with a dropper, and were disposed in a Petri dish containing the Hank's buffer prepared according to the above-disclosed formula. Later, the Petri dish was disposed in an incubator (RI-80, FIRSTEK, Taiwan) under a controlled temperature of 28.5 degrees Celsius, and a controlled light-dark cycle of 14 hours of light and 10 hours of darkness for a 9-hour breeding process to allow development of the fertilized eggs into embryos. Subsequently, a Leica Z16 APO stereomicroscope (Leica, Heerbrugg, Switzerland) was used for the observation of the development of various embryos. Based on the observations, only well-developed embryos were kept for use in the experiments that followed.
First, arbutin (Sigma, Cat. No. A4256), N-phenylthiourea (Sigma, Cat. No. P7629) and kojic acid (Sigma, Cat. No. K3125) were respectively dissolved in a 2% dimethyl sulfoxide (DMSO) solution prepared from Hank's buffer to result in arbutin solutions with concentrations of 0.1 mM, 0.2 mM, 1 mM, 2 mM, 10 mM and 20 mM, N-phenylthiourea solutions with concentrations of 0.002 mM, 0.02 mM, 0.2 mM, 0.4 mM, 1 mM and 2 mM, and kojic acid solutions with concentrations of 0.2 mM, 1 mM, 2 mM, 20 mM, 40 mM and 100 mM, respectively. Next, each well of a 96-well plate is provided with 100 μL of Hank's buffer. Subsequently, in accordance with the operational conditions set forth below in Table 4, the zebrafish prepared in the way previously described under subsection 2 of section A (Materials used during experimentation) were added respectively to the wells, to which 100 μL of the to-be-analyzed candidates, i.e., arbutin, N-phenylthiourea and kojic acid solutions of various concentrations, were added so as to result in the final concentrations as shown in Table 4. The 96-well plate was then disposed in an incubator under a controlled temperature of 28.5 degrees Celsius, and a controlled light-dark cycle of 14 hours of light and 10 hours of darkness for a 48-hour breeding period to allow the embryos to develop into zebrafish larvae. It should be noted herein that the above procedure was for preparation of a plurality of the “second groups of zebrafish” (i.e., test groups (A2˜A7, N2˜N7, K2˜K7)), while each of the “first groups of zebrafish” (each for a kind of the to-be-tested candidate) were prepared using the same breeding process without the administration of the to-be-analyzed candidates so as to form control groups (A1, N1, K1).
A tricaine methanesulfonate solution (MS-222) with a concentration of 168 ppm was used to anesthetize the zebrafish larvae prepared in Procedure A. Next, a depression slide (Micro Scientific Laboratories, Inc., U.S.A., Cat. No. MM-104SC) containing 1% methyl cellulose (Sigma, Cat. No. M0512) was used to mount the zebrafish. Subsequently, Leica Z16 APO stereomicroscope was used to acquire images of the zebrafish with a 25× magnification rate and a 3.372 ms exposure time.
Image Scion was used to determine the mean of the number of “valid pixels” (i.e., pixels whose grayscale levels fall within a predefined range) in the images corresponding to the zebrafish of the same group. […]

The test system of assay [2] is zebrafish larvae. In words: Zebrafish larvae skin-whitening screen, number of valid pixels by ImageJ version 1.40 g. The assay is classed as in vivo, zebrafish (Danio Rerio). Conditions: groups A1-A7, FIG. 14 vs FIG. 11; ImageJ threshold 0-85. As for the experimental part: • (2) ImageJ version 1.40 g (ImageJ, National Institute of Health, Bethesda, Md., U.S.A.) with operation parameters set in Table 3 below for defining the predefined range for a pixel to be considered a “valid pixel”.
First, arbutin (Sigma, Cat. No. A4256), N-phenylthiourea (Sigma, Cat. No. P7629) and kojic acid (Sigma, Cat. No. K3125) were respectively dissolved in a 2% dimethyl sulfoxide (DMSO) solution prepared from Hank's buffer to result in arbutin solutions with concentrations of 0.1 mM, 0.2 mM, 1 mM, 2 mM, 10 mM and 20 mM, N-phenylthiourea solutions with concentrations of 0.002 mM, 0.02 mM, 0.2 mM, 0.4 mM, 1 mM and 2 mM, and kojic acid solutions with concentrations of 0.2 mM, 1 mM, 2 mM, 20 mM, 40 mM and 100 mM, respectively. Next, each well of a 96-well plate is provided with 100 μL of Hank's buffer. Subsequently, in accordance with the operational conditions set forth below in Table 4, the zebrafish prepared in the way previously described under subsection 2 of section A (Materials used during experimentation) were added respectively to the wells, to which 100 μL of the to-be-analyzed candidates, i.e., arbutin, N-phenylthiourea and kojic acid solutions of various concentrations, were added so as to result in the final concentrations as shown in Table 4. […]

As to `OC[C@H]1O[C@@H](Oc2ccc(O)cc2)[C@H](O)[C@@H](O)[C@@H]1O` [arbutin], in assay [1], the “mean of the number of "valid pixels" versus concentration of the administered candidate” value is recorded as “decreases with the concentration”, the “concentration giving statistically significant reduction of "valid pixels" in the images of the zebrafish vs control group” value was “at least 0.05 mM” and the “conclusion of the screening as skin-whitening agent” value (shortened to “conclusion of the screening”) is given as “suitable as skin-whitening agents”. In addition, the “comparison of results obtained using ImageJ version 1.40 g with those using Image Scion” value in assay [2] was “no significant difference”.

On to `NC(=S)Nc1ccccc1` [N-phenylthiourea], for which, in assay [1], the “mean of the number of "valid pixels" versus concentration of the administered candidate” value was “decreases with the concentration”, the “concentration giving statistically significant reduction of "valid pixels" in the images of the zebrafish vs control group” value was “at least 0.01 mM” and the “conclusion of the screening” value is “suitable as skin-whitening agents”.

As to `O=c1cc(CO)occ1O` [kojic acid], in assay [1], the “mean of the number of "valid pixels" versus concentration of the administered candidate” value was “decreases with the concentration”, the “concentration giving statistically significant reduction of "valid pixels" in the images of the zebrafish vs control group” value is listed as “at least 10 mM” and the “conclusion of the screening” value was “suitable as skin-whitening agents”.
